Reference: patent publication US11458132B2, “Quinolin-2(1H)-one inhibitors of Late SV40 Factor” (TRUSTEES OF BOSTON UNIVERSITY, priority 2020, dated 2022)

Legend:
FH-B cells [1] = assay: MTS cell proliferation assay; type: cell-based, human; settings: for GI50: Homo sapiens, FH-B cells, MTS assay, 72 hour treatment
Experimental: MTS Cell Proliferation Assay: Three thousand FH-B cells were seeded per well in a 96-well plate and incubated at 37° C. for 20 hours. Compound dilutions were prepared in DMSO and added to the cell culture media to a final DMSO concentration of 1% for a 72 hour treatment. Cell growth inhibition was assessed by measuring absorbance at 490 nm using the Promega CellTiter 96® AQueous One Solution Cell Proliferation Assay (Promega, G358C). Percent growth inhibition was determined by the ratio of the absorbance of treatment wells to the absorbance of control wells. A non-linear regression plot of the percentage of growth inhibition versus compound concentration was prepared using GraphPad Prism software, using settings for the curves of variable slope and four parameters. The relative GI50 value was determined from the curve as the concentration of drug that provokes a response halfway between the top and bottom plateaus of the curve.

FH-B cells [2] = assay: Cell spreading area / cell compaction by microscopy; type: cell-based, human
Experimental: Cells were washed as before, treated with Phalloidin-iFluor 488 Reagent (abcam, ab176753) for 1 hour in 1-5% BSA in PBS, followed by Hoechst 33342 (Thermo Fisher Scientific, H3570) for 5 minutes. Mounting medium (Fisher Scientific, P10144) and cover slips were applied onto dried cells. Individually discernible cells were imaged on an Olympus Fluoview 10i. Using ImageJ, the phalloidin channel was thresholded and area and circularity values were measured and integrated into swarmplots using Python's seaborn library.
For time lapse microscopy, FH-B cells in high μ-dishes were incubated with CellBrite™ Steady Membrane stain (Biotium, 30108-T) for 30-40 minutes in the environmental chamber of a Nikon C2 Si microscope at 37° C. and 5% CO2. Treatments were added to the cells through a syringe to reach final concentrations of 4 μM FQI1 or 0.01% DMSO. Immediately thereafter, a time-lapse series was acquired by imaging every 30 seconds for 30 minutes at 20× magnification.

RPE cells = assay: Wound healing assay; type: cell-based
Experimental: Wound healing analysis: Confluent RPE cells were synchronized by incubating with 2 mM thymidine for 18-20 hours. Two intersecting lines were drawn into the confluent cells using a pipette tip. A phase-contrast image was acquired of the intersection point (“0 h” time-point) on an Olympus IX50 inverted microscope, immediately followed by treatment with the respective inhibitor and 2 mM thymidine. Phase-contrast images of the intersection point were acquired every 2 hours for 12 hours, continuing incubation at 37° C. in 5% CO2 in-between time points. Using ImageJ, the distances between each pair of neighboring vertices of the intersection point at each time-point were measured and normalized to the “0 h” sample.
RPE-hTERT Flp-In cells, propagated in DME M:F12 media with 10% fetal bovine serum at 37° C. in a 5% CO2 humidified incubator, were grown to confluence in 6-well tissue culture plates. One day prior to performing the wound healing assay, the medium was exchanged to also include 2 mM thymidine, so that the cells would stop dividing.
A cross-shaped wound was scratched into each well, and the cells imaged by phase contrast microscopy using at 4× magnification using a Olympus IX50 Inverted microscope. Then the cell media was exchanged to include vehicle (DMSO at 0.01%), 50 nM FQI2-34, 100 nM FQI2-34, or 200 nM FQI2-34; 2 mM thymidine was maintained throughout, as well. Cells were imaged again at 2 h, 4h, 6h, and 8h, in order to measure the migration of the cells into the wound.
Each of the 4 lines across the vertices of the “X” were individually measured from each set of images using ImageJ. Relative distances of cell migration into the wound were obtained by subtracting each of the lengths for 2-8 hour timepoints from the length at the 0 hour timepoint for that line and that sample. The averages of the four changes in lengths per sample were then plotted over time for each concentration of FQI2-34, from […], using Prism software. Triplicate technical replicates were performed for each concentration.

Row | SMILES | GI50 (FH-B cells [1]) [nM] | effect of FQI1 on cell spreading area after taxol pretreatment (FH-B cells [2]; 1 μM taxol 30 minutes, then 4 μM FQI1) | reduction in cell spreading area (FH-B cells [2]; 4 μM FQI1, 30-60 minutes, vs vehicle) [fold] | reduction in cell spreading area (FH-B cells [2]; Y-27632 pretreatment 30 minutes, then 4 μM FQI1 30 minutes) [fold] | decrease in median cell spreading area (FH-B cells [2]; vehicle pretreatment 30 minutes, then 4 μM FQI1 10 or 30 minutes) [fold] | reduction in cell spreading area (FH-B cells [2]; vehicle pretreatment (control group of Y-27632 experiment), 4 μM FQI1 30 minutes) [fold] | time by which inhibition of migration is detectable (RPE cells; 4 μM FQI1) [h] | migration of cells into the wound (RPE cells; 4 μM FQI1 or 1 μM nocodazole, monitored 12 hours) | fold higher efficacy than FQI1 in inhibiting proliferation of FH-B cells (FH-B cells [1]) [fold] | decrease in cell spreading (FH-B cells [2]; 200 nM FQI2-34, 30 minutes, vs vehicle) [fold] | fold lower concentration than the effective concentrations for FQI1 (cell compaction) (FH-B cells [2]; 200 nM FQI2-34 vs 4 μM FQI1) [fold] | fold lower concentration than that used for FQI1 in the same assay (RPE cells) [fold] | concentration that effectively inhibits cell migration (RPE cells; 50, 100, 200 nM tested, 2-8 h) [nM]
1 | CCOc1ccccc1C1CC(=O)Nc2cc3c(cc21)OCO3 (centres unmarked) [FQI1, 8-(2-ethoxyphenyl)-7,8-dihydro-[1,3]dioxolo[4,5-g]quinolin-6(5H)-one] | 2300 | no detectable effect | 1.7 | 1.2 | 1.5 | 1.6 | ≤ 4 | hindered RPE cells from migrating into the wound |  |  |  |  | 
2 | CCOc1cc(N(C)C)ccc1-c1cc(=O)[nH]c2cc3c(cc12)OCO3 [FQI2-34, 8-(4-(dimethylamino)-2-ethoxyphenyl)-[1,3]dioxolo[4,5-g]quinolin-6(5H)-one] | 140 |  |  |  |  |  |  |  | 17 | 2.1 | 20 | 20 | 200
